Experimental data as given in patent US20220119354A1, “DIAMINO-SUBSTITUTED PYRIDINES AND PYRIMIDINES AS HERBICIDES” (FMC Corporation, priority 2019, published 2022).

Experiments:
Assay type in all cases: in vivo
[1] = test system: ducksalad (Heteranthera limosa); experiment: Test B flooded paddy test, ducksalad; conditions: Flood, 250 g ai/ha, applied to paddy water, 2-leaf stage, visual evaluation after 13 to 15 d
How it was run: (§1)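 Rating: 0 = no effect, 100 = complete control, visual, relative to untreated plants. Conditions: 2-leaf stage, 3 cm flood kept constant, compound put directly into water, 13–15 d greenhouse.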

[2] = test system: pigweed (Amaranthus retroflexus); experiment: Test A preemergence, pigweed; conditions: 0 to 100 scale
How it was run: (§2)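 Greenhouse evaluation: treated and untreated pots were held about 10 d, then injury was rated visually from 0 (no effect) to 100 (complete control). Application was preemergence to soil or postemergence to seedlings 2–10 cm tall, using a non-phytotoxic solvent formulation with surfactant.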

[3] = test system: ragweed (common ragweed, Ambrosia elatior); experiment: Test A preemergence, ragweed; conditions: 0 to 100 scale
How it was run: as §2

[4] = test system: blackgrass (Alopecurus myosuroides); experiment: Test A postemergence, blackgrass; conditions: 0 to 100 scale
How it was run: as §2

[5] = test system: foxtail, giant (Setaria faberii); experiment: Test A postemergence, giant foxtail; conditions: 0 to 100 scale
How it was run: as §2

[6] = test system: kochia (Kochia scoparia); experiment: Test A postemergence, kochia; conditions: 0 to 100 scale
How it was run: as §2

[7] = test system: barnyardgrass (Echinochloa crus-galli); experiment: Test A preemergence, barnyardgrass; conditions: 0 to 100 scale
How it was run: as §2

[8] = test system: barnyardgrass (Echinochloa crus-galli); experiment: Test A postemergence, barnyardgrass; conditions: 0 to 100 scale
How it was run: as §2

[9] = test system: ryegrass, Italian (Lolium multiflorum); experiment: Test A postemergence, Italian ryegrass; conditions: 0 to 100 scale
How it was run: as §2

[10] = test system: foxtail, giant (Setaria faberii); experiment: Test A preemergence, giant foxtail; conditions: 0 to 100 scale
How it was run: as §2

[11] = test system: rice (Oryza sativa); experiment: Test B flooded paddy test, rice; conditions: Flood, 250 g ai/ha, applied to paddy water, 2-leaf stage, visual evaluation after 13 to 15 d
How it was run: as §1

[12] = test system: corn (Zea mays); experiment: Test A postemergence, corn; conditions: 0 to 100 scale
How it was run: as §2

[13] = test system: galium (catchweed bedstraw, Galium aparine); experiment: Test A postemergence, galium; conditions: 0 to 100 scale
How it was run: as §2

[14] = test system: ragweed (common ragweed, Ambrosia elatior); experiment: Test A postemergence, ragweed; conditions: 0 to 100 scale
How it was run: as §2

[15] = test system: wheat (Triticum aestivum); experiment: Test A postemergence, wheat; conditions: 0 to 100 scale
How it was run: as §2

[16] = test system: sedge, umbrella (small-flower umbrella sedge, Cyperus difformis); experiment: Test B flooded paddy test, umbrella sedge; conditions: Flood, 250 g ai/ha, applied to paddy water, 2-leaf stage, visual evaluation after 13 to 15 d
How it was run: as §1

[17] = test system: barnyardgrass (Echinochloa crus-galli); experiment: Test B flooded paddy test, barnyardgrass; conditions: Flood, 250 g ai/ha, applied to paddy water, 2-leaf stage, visual evaluation after 13 to 15 d
How it was run: as §1

[18] = test system: kochia (Kochia scoparia); experiment: Test A preemergence, kochia; conditions: 0 to 100 scale
How it was run: as §2

[19] = test system: ryegrass, Italian (Lolium multiflorum); experiment: Test A preemergence, Italian ryegrass; conditions: 0 to 100 scale
How it was run: as §2

[20] = test system: pigweed (Amaranthus retroflexus); experiment: Test A postemergence, pigweed; conditions: 0 to 100 scale
How it was run: as §2

[21] = 125 g ai/ha, 0 is no effect, 100 is complete control

CC(COc1cc(F)c(F)c(F)c1)Nc1ncc(C(F)(F)F)c(N)n1 (stereo not drawn) [Compound 36]
0: Plant response rating, Ducksalad (0 to 100 scale, 0 is no effect, 100 is complete control) [1] | Pigweed plant response rating [2, 21] | Plant response rating, Pigweed ([2]; 500 g ai/ha) | Ragweed plant response rating [3, 21] | Plant response rating, Ragweed ([3]; 500 g ai/ha) | Plant response rating, Blackgrass ([4]; 125 g ai/ha) | Plant response rating, Blackgrass ([4]; 500 g ai/ha) | Plant response rating, Foxtail, Giant ([5]; 125 g ai/ha) | Plant response rating, Foxtail, Giant ([5]; 500 g ai/ha) | Plant response rating, Kochia ([6]; 125 g ai/ha) | Plant response rating, Kochia ([6]; 500 g ai/ha) | Barnyardgrass plant response rating [7, 21] | Plant response rating, Barnyardgrass ([7]; 500 g ai/ha) | Plant response rating, Barnyardgrass ([8]; 125 g ai/ha) | Plant response rating, Barnyardgrass ([8]; 500 g ai/ha) | Plant response rating, Ryegrass, Italian ([9]; 125 g ai/ha) | Plant response rating, Ryegrass, Italian ([9]; 500 g ai/ha) | Foxtail, Giant plant response rating [10, 21] | Plant response rating, Foxtail, Giant ([10]; 500 g ai/ha) | Plant response rating, Rice (0 to 100 scale, 0 is no effect, 100 is complete control) [11] | Plant response rating, Corn ([12]; 500 g ai/ha) | Plant response rating, Galium ([13]; 125 g ai/ha) | Plant response rating, Galium ([13]; 500 g ai/ha) | Plant response rating, Ragweed ([14]; 125 g ai/ha) | Plant response rating, Ragweed ([14]; 500 g ai/ha) | Plant response rating, Wheat ([15]; 125 g ai/ha) | Plant response rating, Wheat ([15]; 500 g ai/ha) | Plant response rating, Sedge, Umbrella (0 to 100 scale, 0 is no effect, 100 is complete control) [16] | Plant response rating, Barnyardgrass (0 to 100 scale, 0 is no effect, 100 is complete control) [17] | Ryegrass, Italian plant response rating [19, 21] | Plant response rating, Ryegrass, Italian ([19]; 500 g ai/ha) | Plant response rating, Pigweed ([20]; 125 g ai/ha) | Plant response rating, Pigweed ([20]; 500 g ai/ha)
10: Plant response rating, Corn ([12]; 125 g ai/ha)
70: Kochia plant response rating [18, 21]
30: Plant response rating, Kochia ([18]; 500 g ai/ha)

C[C@@H](Nc1ncc(C(F)(F)F)c(N)n1)c1cccc2ccccc12 [Compound 3]
0: Plant response rating, Blackgrass ([4]; 125 g ai/ha) | Plant response rating, Foxtail, Giant ([5]; 125 g ai/ha) | Plant response rating, Ryegrass, Italian ([9]; 125 g ai/ha) | Plant response rating, Ryegrass, Italian ([9]; 500 g ai/ha) | Plant response rating, Rice (0 to 100 scale, 0 is no effect, 100 is complete control) [11] | Plant response rating, Corn ([12]; 125 g ai/ha) | Plant response rating, Wheat ([15]; 500 g ai/ha) | Plant response rating, Barnyardgrass (0 to 100 scale, 0 is no effect, 100 is complete control) [17]
20: Plant response rating, Barnyardgrass ([8]; 125 g ai/ha) | Plant response rating, Wheat ([15]; 125 g ai/ha) | Plant response rating, Ryegrass, Italian ([19]; 125 g ai/ha)
100: Plant response rating, Pigweed ([2]; 125 g ai/ha) | Plant response rating, Pigweed ([2]; 500 g ai/ha) | Plant response rating, Ragweed ([3]; 125 g ai/ha) | Plant response rating, Ragweed ([3]; 500 g ai/ha) | Plant response rating, Barnyardgrass ([7]; 500 g ai/ha) | Plant response rating, Kochia ([18]; 500 g ai/ha) | Plant response rating, Pigweed ([20]; 500 g ai/ha)
65: Plant response rating, Sedge, Umbrella (0 to 100 scale, 0 is no effect, 100 is complete control) [16]
90: Plant response rating, Kochia ([6]; 500 g ai/ha) | Plant response rating, Foxtail, Giant ([10]; 500 g ai/ha) | Plant response rating, Galium ([13]; 500 g ai/ha) | Plant response rating, Ragweed ([14]; 500 g ai/ha) | Plant response rating, Ryegrass, Italian ([19]; 500 g ai/ha) | Plant response rating, Pigweed ([20]; 125 g ai/ha)
40: Plant response rating, Foxtail, Giant ([5]; 500 g ai/ha)
30: Plant response rating, Ducksalad (0 to 100 scale, 0 is no effect, 100 is complete control) [1] | Plant response rating, Blackgrass ([4]; 500 g ai/ha) | Plant response rating, Kochia ([6]; 125 g ai/ha) | Plant response rating, Galium ([13]; 125 g ai/ha) | Plant response rating, Ragweed ([14]; 125 g ai/ha) | Plant response rating, Kochia ([18]; 125 g ai/ha)
80: Plant response rating, Barnyardgrass ([8]; 500 g ai/ha)
10: Plant response rating, Barnyardgrass ([7]; 125 g ai/ha) | Plant response rating, Foxtail, Giant ([10]; 125 g ai/ha) | Plant response rating, Corn ([12]; 500 g ai/ha)
